Experiments:
[1] = tested on: autologous TILs and patient-derived sarcoma spheroids; test: Spheroid infiltration by autologous TILs (real-time imaging and flow cytometry); assay type: cell-based, human; details: antagonist 12 µM, 3 days
Method: Spheroids were prepared using patient-derived sarcoma cell lines. 1×10^4 cells were seeded per well in 96-well ultra-low attachment plate with DMEM-F12 media containing 20% FBS and 1% PS for 5 days. 3×10^4 CSFE-labeled autologous expanded TILs, at Effector:target ratio of 3:1, were added to the spheroid at day five with A2BAR antagonism treatment at 12 µM. After 3 days, spheroid was removed and split into two groups—IN and OUT. […] Spheroids were washed with PBS at least two times. GentleMACS tumor dissociation kit (Miltenyi Biotec) was used to digest the spheroids for FC analysis.
Brightfield and phase contrast images under 4X objective were acquired every 6 hours on IncuCyte S3 system (Essen BioScience). For breast cancer patient-derived spheroid culture, 1×10^4 cells per well were seeded with A2BAR antagonist at 12 µM treatment for 6 days real time imaging. For spheroid infiltration, after the addition of CSFE-labeled autologous expanded TILs and treatment with A2BAR antagonist at 12 µM, green fluorescence images were acquired for 3 days. All spheroid invasion analysis was performed using top hat segmentation with IncuCyte software.
Cell surface was stained with mouse monoclonal antihuman antibodies against CD3, CD4, CD8, CD45RA, CD56 and CD19 listed in online supplemental table 1. Cell surface antibodies and live/dead (L/D) marker were incubated with samples at 4°C for 20 min after washing two times with flow cytometry buffer containing 5% FBS in PBS. For spheroid infiltrated TIL phenotyping, digested IN and OUT spheroids were stained with cell surface marker and analyzed on NovoCyte (ACEA Bioscience) with the use of FlowJo software (Tree Star) by gating single cell based on forward and side scatters. A representative gating strategy for CD8 naïve T cells is shown in online supplemental figure 3A. Compensated flow cytometry standard (FCS) files with only live cells were concatenated for downstream tSNE analysis using the ‘cytofkit’ R package (https://github.com/JinmiaoChenLab/cytofkit).
Figure 6 Infiltration of TILs into autologous patient-derived sarcoma spheroids after A2BAR antagonist treatment. (A) Representative real-time imaging of spheroid TIL infiltration over 3 days under 4× objective. Green areas demarcate CFSE-labeled TILs infiltrated into the red boundary tumor spheroid. (B) Relative TIL infiltration into autologous spheroids (n=8 donors) measured by flow cytometer. Antagonist 12 µM was added with CSFE-labeled TILs after spheroid formation on day five. (C) Representative flow cytometry plot of CFSE positive TILs in CD73+ tumor spheroid. (D) tSNE analysis and (E) annotated pie chart of TILs within (IN) and outside of (OUT) the spheroids without treatment (n=8 donors, indicated within the pie chart). Wilcoxon Rank Sum test was performed to compare the various IN vs OUT adhesion markers. Expression of (F) CD3 T cells, (G) CD49a+ CD103+ among CD8 T cells and (H) CD69 MFI among CD4 T cells IN and OUT of the spheroids without treatment (n=8 donors). (I) Relative CD8/CD4 TIL ratio IN the spheroids. Differential expression of relative (J–L). CD49a+ CD103+ cells IN the spheroids (n=8 donors) of CD3, CD8, and CD4 TILs. Antagonist 12 µM was added for J–L. Outlier is presented as diamond shape and defined by Tukey’s rule, which is not included in statistical analysis. Box plots with minimum, first quartile, median, third quartile, and maximum are presented. Unpaired and non-parametric statistical analysis—Mann-Whitney test was performed against untreated control with *p<0.05, **p<0.01, ***p<0.001, and ****p<0.0001. CFSE, carboxyfluorescein succinimidyl ester; TIL, tumor infiltrating lymphocyte; tSNE, T-distributed stochastic neighboring embedding. TEXT PRINTED IN THE PICTURE: (C) ISAM-R56A: TILs 13.0 DOUBTS OF THE COPYIST ABOUT THIS PICTURE: Panel C, ISAM-R56A, TILs: the print is small, 13.0 could be 13.8 or 13.6 / Panel C also prints a gate label 'TILs 3.17' for the Untreated control. […]

[2] = tested on: healthy donor T cells (PBMCs) and NK cells; test: CFSE proliferation assay with exogenous adenosine; assay type: cell-based, human; details: exogenous adenosine 0.1 mM, antagonist 12 µM; for Rescue of lymphocyte (T and NK cell) proliferation: 3 days (T) and 6 days (NK); for Rescue of NK cell proliferation: 6 days
Method: Freshly isolated PBMCs and NK cells were stained with 5 µM FITC-conjugated carboxyfluorescein succinimidyl ester (CFSE, BioLegend) in phosphate-buffered saline (PBS) (Life Technologies) at room temperature for 5 min. CSFE stained cells were washed with flow cytometer buffer three times. CSFE-labeled healthy PBMCs and NK cells were cultured in 96-well plates with X-VIVO20% and 1% PS for 3 and 6 days, respectively. Healthy PBMCs were incubated with Human T-activator CD3/CD28 beads at 1:4 ratio (Thermo Fisher Scientific) and IL-2 (Novartis) at 100 IU/mL. Healthy donor NK cells were incubated with 1000 IU/mL IL-2 only. 2×10^5 PBMCs and 5×10^4 NK cells were counted for treatment with ADO (Sigma-Aldrich) and 12 μM of A2BAR antagonist at the same day.
Figure 3 Rescue of lymphocyte proliferation by of A2BAR antagonism. Relative proliferation of: (A) CD45RA- CD4 T cells, (B) CD45RA+ CD4 T cells, (C) CD45RA- CD8 T cells, (D) CD45RA+ CD8 T cells, and (E) NK cells, after incubation with exogenous adenosine 0.1 mM and A2BAR antagonist 12 µM for 3 (A–D) and 6 (E) days. (n=10 healthy donors) CD45RA expression differentiates naïve and effector T cells from central and effector memory T cells. Box plots with minimum, first quartile, median, third quartile, and maximum are presented. Unpaired and non-parametric statistical analysis—Mann-Whitney test was performed against untreated control with *p<0.05, **p<0.01, ***p<0.001, and ****p<0.0001. (F–J) Representative CFSE histogram on the corresponding lymphocyte subset. CFSE, carboxyfluorescein succinimidyl ester.

Row | Structure (SMILES) | Median increased TIL infiltration vs untreated ([1]; n=8 donors, not statistically significant) | Rescue of lymphocyte (T and NK cell) proliferation [2] | TIL infiltration into autologous sarcoma spheroids vs untreated (real-time imaging) ([1]; n=8 donors) | Rescue of proliferation of CD45RA+ (naïve and effector) CD8 T cells ([2]; 3 days, n=10 healthy donors) | Rescue of proliferation of CD45RA+ CD4 T cells ([2]; 3 days, n=10 healthy donors) | Rescue of proliferation of CD45RA- CD4 T cells (central and effector memory) ([2]; 3 days, n=10 healthy donors) | Rescue of NK cell proliferation ([2]; n=10 healthy donors) | TIL infiltration into spheroids by flow cytometry (CSFE positive, CD73 negative TILs) [1] | TIL infiltration into autologous sarcoma spheroids vs untreated (real-time imaging) ([1]; n=8 donors, listed as ISAM–R56A) | Rescue of proliferation of T cell subsets ([2]; 3 days, n=10 healthy donors)
1 | CC1=C(C(=O)OC(C)C)C(c2ccoc2)n2c(nc3cc(Cl)ccc32)N1 (stereo not shown) [ISAM-M89A] | 7% | did not restore the proliferation |  |  |  |  |  |  |  | 
2 | CC1=C(C(=O)OC(C)C)C(c2ccco2)n2c(nc3ccccc32)N1 (stereo not shown) [ISAM-140, isopropyl 4-(furan-2-yl)−2-methyl-1,4-dihydrobenzo[4 5] imidazo[1,2 a]pyrimidine-3-carboxylate] |  | improved immune cell proliferation | did not have any effect | rescued the proliferation | rescued the proliferation | rescued the proliferation | rescued the proliferation |  |  | 
3 | CC1=C(C(=O)OC(C)C)C(c2ccco2)n2c(nc3ccccc32)N1Cc1ccccc1F (stereo not shown) [ISAM-R56A] |  |  | overall improved TIL infiltration |  |  |  | significantly rescued | significantly enhanced TIL infiltration | improved TILs infiltration | did not restore the proliferation
